Reference: paper PMC10945555, “Improving Activity of New Arylurea Agents against Multidrug-Resistant and Biofilm-Producing Staphylococcus epidermidis” (ACS Medicinal Chemistry Letters, 2024)
Values after ≈ are worked out from the molar mass of the structure shown.

Columns and labels:
Assay type in all cases: cell-based
[1] = system: biofilm-producing Staphylococcus epidermidis strains; experiment: Inhibition of biofilm formation (MBIC, resazurin)
Method: After 24 hours incubation each well of
concentration of 4 mg/mL was added. […]

H9c2 cells = experiment: Cytotoxicity, MTT assay, cardiomyocytes; settings: Rattus norvegicus, 24 h, n = 3
Method: The following cell models were used in the research: rat cardiomyocytes (H9c2 line) and human skin fibroblasts (BJ line). All cell lines used in the work are commercially available and were purchased from ATCC banks (the American Type Culture Collection, Manassas, VI, USA). Cell cultures were carried out in an incubator under standard conditions (37°C, 5% CO 2).
Culture media (Dulbecco's Modified Eagle's Medium -DMEM (H9c2) and Eagle's Minimum Essential Medium-EMEM (BJ) were supplemented with 10% bovine serum and a 1% mixture of penicillin and streptomycin antibiotics. […]
doxorubicin (a cytotoxic drug) were used as reference and positive control, respectively. […]
incubated with studied compound in appropriate concentration for next 24 h. Then MTT solution (5 mg/mL) was transferred into culture medium of incubated cells. After 3 h, once dark crystals of formazan were produced in cells, medium was aspirated and 100 μ L of DMSO was added to dissolve formazan. Absorbance of DMSO solution was read on a multiwell plate reader (Spectra Max iD3, Molecular Devices) at 570 nm. In order to determine viability, absorbance of experimental wells was divided by absorbance of contro l well (not treated) and multiplied by 100 (%). Three separate experiments were performed. IC 50 was calculated using non-linear regression method in OriginPro software. […]

[2] = system: biofilm-producing Staphylococcus epidermidis strains; experiment: Biofilm eradication (MBEC Assay Kit)
[3] = S. epidermidis ATCC 35984 (Table S4)

`CC(=O)NC[C@H]1CN(c2ccc(N3CCOCC3)c(F)c2)C(=O)O1` [linezolid, reference compound] was tested, and the MBIC [1, 3] was 15.6 µg/mL, the MBIC50 ([1]; Table S4 strains) was 25 µg/mL and the MBIC90 ([1]; Table S4 strains) was 50 µg/mL. The MBIC ([1]; clinical strain 1 (Table S4)) was 15.6 µg/mL, the MBIC ([1]; clinical strain 2 (Table S4)) was 50 µg/mL and the MBIC ([1]; clinical strain 3 (Table S4)) was 50 µg/mL. It also gave an MBIC ([1]; clinical strain 4 (Table S4)) of 50 µg/mL, an MBIC ([1]; clinical strain 5 (Table S4)) of 15.6 µg/mL and an MBIC ([1]; clinical strain 6 (Table S4)) of 15.6 µg/mL. For the same molecule, the MBIC ([1]; clinical strain 7 (Table S4)) was 50 µg/mL, the MBIC ([1]; clinical strain 8 (Table S4)) was 12.5 µg/mL and the MBIC ([1]; clinical strain 9 (Table S4)) was 50 µg/mL. For the same molecule, the MBIC ([1]; clinical strain 11 (Table S4)) was 50 µg/mL, the MBIC ([1]; clinical strain 12 (Table S4)) was 50 µg/mL and the MBIC ([1]; clinical strain 13 (Table S4)) was 6.25 µg/mL. For the same molecule, the MBIC ([1]; clinical strain 15 (Table S4)) was 50 µg/mL, the MBIC ([1]; clinical strain 16 (Table S4)) was 15.6 µg/mL and the MBIC ([1]; clinical strain 17 (Table S4)) was 25 µg/mL. The MBIC ([1]; clinical strain 19 (Table S4)) was 25 µg/mL, the MBIC ([1]; clinical strain 21 (Table S4)) was 50 µg/mL and the MBIC ([1]; clinical strain 22 (Table S4)) was 50 µg/mL. It also gave an MBIC ([1]; clinical strain 23 (Table S4)) of 12.5 µg/mL, an MBIC ([1]; clinical strain 25 (Table S4, Figure 2)) of 12.5 µg/mL and an MBIC ([1]; clinical strain 26 (Table S4)) of 50 µg/mL. It also gave an MBIC ([1]; clinical strain 27 (Table S4)) of 50 µg/mL, an MBIC ([1]; clinical strain 28 (Table S4)) of 25 µg/mL and an MBIC ([1]; clinical strain 29 (Table S4)) of 25 µg/mL. It also gave an MBIC ([1]; clinical strain 30 (Table S4)) of 6.25 µg/mL, an MBIC ([1]; clinical strain 33 (Table S4)) of 50 µg/mL and an MBIC ([1]; clinical strain 35 (Table S4)) of 50 µg/mL. For the same molecule, the MBIC ([1]; clinical strain 36 (Table S4)) was 25 µg/mL, the MBIC ([1]; clinical strain 37 (Table S4)) was 50 µg/mL and the MBIC ([1]; clinical strain 39 (Table S4)) was 6.25 µg/mL. The MBIC ([1]; clinical strain 40 (Table S4)) was 25 µg/mL, the MBIC ([1]; clinical strain 41 (Table S4)) was 50 µg/mL and the MBIC ([1]; clinical strain 42 (Table S4)) was 50 µg/mL. The MBIC ([1]; clinical strain 43 (Table S4)) was 25 µg/mL, the MBIC ([1]; clinical strain 44 (Table S4)) was 25 µg/mL and the MBIC ([1]; clinical strain 45 (Table S4)) was 50 µg/mL. For the same molecule, the MBIC ([1]; clinical strain 46 (Table S4)) was 50 µg/mL, the MBIC ([1]; clinical strain 47 (Table S4)) was 25 µg/mL and the MBIC ([1]; clinical strain 49 (Table S4)) was 25 µg/mL. The MBIC ([1]; clinical strain 51 (Table S4)) was 50 µg/mL, the MBIC ([1]; clinical strain 55 (Table S4)) was 50 µg/mL and the MBIC ([1]; clinical strain 58 (Table S4)) was 50 µg/mL. It also gave an MBIC ([1]; clinical strain 59 (Table S4)) of 50 µg/mL, an MBIC ([1]; clinical strain 65 (Table S4)) of 50 µg/mL and an MBIC ([1]; clinical strain 66 (Table S4)) of 25 µg/mL. It also gave an MBIC ([1]; clinical strain 67 (Table S4)) of 50 µg/mL, an MBIC ([1]; clinical strain 70 (Table S4)) of 50 µg/mL and an MBIC ([1]; clinical strain 73 (Table S4)) of 15.6 µg/mL. For the same molecule, the MBIC ([1]; clinical strain 74 (Table S4)) was 25 µg/mL, the MBIC ([1]; clinical strain 75 (Table S4)) was 25 µg/mL and the MBIC ([1]; clinical strain 78 (Table S4)) was 15.6 µg/mL. For the same molecule, the MBIC ([1]; clinical strain 79 (Table S4)) was 15.6 µg/mL, the IC50 (H9c2 cells) was 16.9 µg/mL (≈ 50.1 µM) and the MBEC [2, 3] was 15.6 µg/mL. For the same molecule, the MBEC50 ([2]; Table S4 strains) was 50 µg/mL, the MBEC90 ([2]; Table S4 strains) was 50 µg/mL and the MBEC ([2]; clinical strain 1 (Table S4)) was 31.25 µg/mL. The MBEC ([2]; clinical strain 2 (Table S4)) was 50 µg/mL, the MBEC ([2]; clinical strain 3 (Table S4)) was 50 µg/mL and the MBEC ([2]; clinical strain 4 (Table S4)) was 50 µg/mL. The MBEC ([2]; clinical strain 5 (Table S4)) was 50 µg/mL, the MBEC ([2]; clinical strain 6 (Table S4)) was 31.25 µg/mL and the MBEC ([2]; clinical strain 7 (Table S4)) was 50 µg/mL. The MBEC ([2]; clinical strain 8 (Table S4)) was 15.6 µg/mL, the MBEC ([2]; clinical strain 9 (Table S4)) was 50 µg/mL and the MBEC ([2]; clinical strain 11 (Table S4)) was 50 µg/mL. The MBEC ([2]; clinical strain 12 (Table S4)) was 50 µg/mL, the MBEC ([2]; clinical strain 13 (Table S4)) was 7.8 µg/mL and the MBEC ([2]; clinical strain 15 (Table S4)) was 50 µg/mL. It also gave an MBEC ([2]; clinical strain 16 (Table S4)) of 50 µg/mL, an MBEC ([2]; clinical strain 17 (Table S4)) of 31.25 µg/mL and an MBEC ([2]; clinical strain 19 (Table S4)) of 31.25 µg/mL. It also gave an MBEC ([2]; clinical strain 21 (Table S4)) of 50 µg/mL, an MBEC ([2]; clinical strain 22 (Table S4)) of 50 µg/mL and an MBEC ([2]; clinical strain 23 (Table S4)) of 15.6 µg/mL. The MBEC ([2]; clinical strain 25 (Table S4)) was 15.6 µg/mL, the MBEC ([2]; clinical strain 26 (Table S4)) was 50 µg/mL and the MBEC ([2]; clinical strain 27 (Table S4)) was 50 µg/mL. The MBEC ([2]; clinical strain 28 (Table S4)) was 50 µg/mL, the MBEC ([2]; clinical strain 29 (Table S4)) was 50 µg/mL and the MBEC ([2]; clinical strain 30 (Table S4)) was 7.8 µg/mL. For the same molecule, the MBEC ([2]; clinical strain 33 (Table S4)) was 50 µg/mL, the MBEC ([2]; clinical strain 35 (Table S4)) was 50 µg/mL and the MBEC ([2]; clinical strain 36 (Table S4)) was 50 µg/mL. The MBEC ([2]; clinical strain 37 (Table S4)) was 50 µg/mL, the MBEC ([2]; clinical strain 39 (Table S4)) was 7.8 µg/mL and the MBEC ([2]; clinical strain 40 (Table S4)) was 50 µg/mL. The MBEC ([2]; clinical strain 41 (Table S4)) was 50 µg/mL, the MBEC ([2]; clinical strain 42 (Table S4)) was 50 µg/mL and the MBEC ([2]; clinical strain 43 (Table S4)) was 50 µg/mL. The MBEC ([2]; clinical strain 44 (Table S4)) was 25 µg/mL, the MBEC ([2]; clinical strain 45 (Table S4)) was 50 µg/mL and the MBEC ([2]; clinical strain 46 (Table S4)) was 50 µg/mL. The MBEC ([2]; clinical strain 47 (Table S4)) was 25 µg/mL, the MBEC ([2]; clinical strain 49 (Table S4)) was 25 µg/mL and the MBEC ([2]; clinical strain 51 (Table S4)) was 50 µg/mL. For the same molecule, the MBEC ([2]; clinical strain 55 (Table S4)) was 50 µg/mL, the MBEC ([2]; clinical strain 58 (Table S4)) was 50 µg/mL and the MBEC ([2]; clinical strain 59 (Table S4)) was 50 µg/mL. The MBEC ([2]; clinical strain 65 (Table S4)) was 50 µg/mL, the MBEC ([2]; clinical strain 66 (Table S4)) was 25 µg/mL and the MBEC ([2]; clinical strain 67 (Table S4)) was 50 µg/mL. For the same molecule, the MBEC ([2]; clinical strain 70 (Table S4)) was 50 µg/mL, the MBEC ([2]; clinical strain 73 (Table S4)) was 15.6 µg/mL and the MBEC ([2]; clinical strain 74 (Table S4)) was 25 µg/mL. For the same molecule, the MBEC ([2]; clinical strain 75 (Table S4)) was 50 µg/mL, the MBEC ([2]; clinical strain 78 (Table S4)) was 15.6 µg/mL and the MBEC ([2]; clinical strain 79 (Table S4)) was 15.6 µg/mL.
